“And” between values parts separate entries of the source, which are not always exact repeats. Equal entries are not always repeated.
Experiments:
[1] = target: T1, human Drp1 isoform 3 (Homo sapiens, UniProt O00429); assay: Microscale thermophoresis (MST) binding; details: human Drp1 isoform 3, 5% DMSO
T1 construct: His tag; made in house; host or cells: E. coli Rosetta (DE3), pET21b vector
Experimental: The recombinant human Drp1 protein (His-tagged human Drp1 isoform 3, kindly provided by Professor Michael Ryan, Monash University, Australia) was generated as described previously. Briefly, cDNA for human Drp1 (isoform 3) was cloned into pET21b vector and transformed in Rosetta (DE3) competent cells (Novagen, MA, Merck Millipore). Transformed cells were propagated in Luria–Bertani broth and protein expression was initiated by the addition of 0.5 mM isopropyl β-D-1-thiogalactopyranoside. Cells were harvested by centrifugation at 3,500 g for 20 min at 4 °C, and the pellet was re-suspended in lysis buffer containing 50 mM Tris HCl (pH 7.3), 500 mM NaCl, 50 mM imidazole, 2.5 mM β-mercaptoethanol, 0.01 mM LEUPEP, 0.1 mM AEBSF and 1 mM benzaminidium chloride. The cells were lysed using a pre-cooled EmulsiFlex-C5 homogenizer (Avestin, Ontario, Canada) on ice and clarified by centrifugation at 17,000 g for 30 min. The clarified cell lysate was loaded onto a 5 mL Nickel Chelating Sepharose Fast Flow column (GE Healthcare, Buckinghamshire, UK) and Drp1 protein was eluted with wash buffer containing 50 mM Tris–HCl (pH 7.6), 150 mM NaCl, 2.5 mM β-mercaptoethanol and 400 mM imidazole. […]
Compound binding was assessed in against the human Drp1 isoform-3 protein using MST Monolith NT.115 instrument (NanoTemper Technologies, Mȕnchen, Germany). […]

[2] = Dynamic light scattering (DLS) compound aggregation threshold; type: physicochemical
Experimental: Identification of compound aggregation threshold was performed using DLS Zetasizer Nano ZS (Malvern Pananalytical, Worcestershire, UK). 100 µL of samples were measured in low-volume plastic micro cuvettes (BrandTech Scientific, CT, USA) at 25 °C using default size measurement settings. […] Mdivi-1 and DRP1i27 were serially diluted three-fold from 500 µM until the volume distribution of particle size was similar to that of the DMSO control. To specifically determine aggregation threshold, further dilution was carried out between concentrations where aggregation was first observed.

[3] = tested on: HL-1 cells; assay: Simulated ischaemia-reperfusion injury, cell death; type: cell-based, Murine; details: 50 µM during simulated ischaemia-reperfusion; DMSO 29.55 ± 5.45%
Experimental: HL-1 cells were plated in 24-well plate pre-coated with 5 μg/mL human fibronectin (Merck Millipore, MA, USA) in 0.02% porcine gelatin solution (Sigma-Aldrich, MA, USA). Cells were maintained in Claycomb media (Sigma-Aldrich) supplemented with 0.1 mM (±)-norepinephrine (+)-bitartrate salt (Sigma-Aldrich), 2 mM GlutaMAX (Thermo Fisher Scientific, MA, USA), 100 μg/mL penicillin/streptomycin (Thermo Fisher Scientific) and 10% non-heat inactivated foetal bovine serum (FBS) (Bovogen Biologicals, Victoria, Australia). The simulated ischaemia–reperfusion injury was performed as described in Rosdah et al.[25]. To simulate ischaemia, cells were cultured in ischaemic buffer (25 mM NaHEPES, 1 mM KH2PO4, 10 mM NaHCO3, 74 mM NaCl, 1.2 mM MgCl2.6H2O, 16 mM KCl, 1.2 mM CaCl2, 10 mM 2-deoxy-d-glucose) and hypoxia (< 0.1% O2) was induced in an airtight GENBox anaerobic chamber containing a Genbox Anaer generator sachet (BioMérieux, Marcy l’Etoile, France) at 37 °C. […] Cell death was determined by staining with 1 μg/mL propidium iodide and 3 μg/mL Hoechst 33258. The number of dead cells (propidium iodide positive) was counted and expressed as a percentage over total number of cells (Hoechst 33258 positive). At least 100 cells were counted per group for each independent experiment.

[4] = tested on: Human foreskin fibroblasts; assay: Mitochondrial morphology analysis in human fibroblasts; type: cell-based
Experimental: (§1) Human foreskin fibroblasts and Drp1 wildtype and KO MEF (kindly provided by Professor Hiromi Sesaki, Johns Hopkins University, USA)[28],[29] were transduced with pAS2.EYFP.puro lentiviruses (RNAiCore, Academia Sinica, Taiwan) carrying the mitochondrial-targeted EGFP sequence as described in Kalkhoran et al.[30]. Cells were then treated with DRP1i27 (5, 10 or 50 µM) or 0.1% DMSO vehicle control for 24 h.
(§2) Mitochondrial morphology in HL-1 cells were visualised by immunostaining of mitochondrial Hsp60 antibody (Abcam, MA, USA). Images were acquired using Olympus BX60 fluorescence microscope at 600 × magnification and analysed using Fiji imaging software (ImageJ v1.53c). Cells were categorised into predominantly (> 50%) having fused or fragmented mitochondria. At least 100 cells were analysed for each treatment group.

[5] = tested on: Drp1 KO MEFs; assay: Mitochondrial morphology analysis in Drp1 KO MEF; type: cell-based, mouse; details: Drp1 KO MEFs, 5, 10 or 50 µM
Experimental: as §1, §2

T1 sequence (O00429 1-699 isoform O00429-4): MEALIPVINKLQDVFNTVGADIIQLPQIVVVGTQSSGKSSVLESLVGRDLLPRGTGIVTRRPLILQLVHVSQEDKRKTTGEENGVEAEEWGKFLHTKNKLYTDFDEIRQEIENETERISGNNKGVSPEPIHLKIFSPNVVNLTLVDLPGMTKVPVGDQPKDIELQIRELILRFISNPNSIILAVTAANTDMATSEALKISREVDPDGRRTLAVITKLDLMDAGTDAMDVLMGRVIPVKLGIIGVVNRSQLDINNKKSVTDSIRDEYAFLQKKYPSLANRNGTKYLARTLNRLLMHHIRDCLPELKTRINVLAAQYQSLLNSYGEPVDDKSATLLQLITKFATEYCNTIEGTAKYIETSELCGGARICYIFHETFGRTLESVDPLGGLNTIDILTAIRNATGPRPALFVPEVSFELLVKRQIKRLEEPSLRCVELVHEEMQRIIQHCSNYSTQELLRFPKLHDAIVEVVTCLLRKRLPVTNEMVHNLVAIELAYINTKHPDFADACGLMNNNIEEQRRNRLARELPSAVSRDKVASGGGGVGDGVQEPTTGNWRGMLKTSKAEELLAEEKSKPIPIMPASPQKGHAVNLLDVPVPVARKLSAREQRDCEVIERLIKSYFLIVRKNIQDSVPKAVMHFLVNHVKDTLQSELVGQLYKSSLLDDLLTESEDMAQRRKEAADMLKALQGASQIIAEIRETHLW

SMILES: Cc1nc[nH]c1CN1C[C@@H]2CC[C@H](C1)N(Cc1ccc(-c3cc[nH]n3)o1)C2 [DRP1i27]
- Kd [1]: 191 µM and 190 µM
- aggregation threshold ([2]; PBS, 2% DMSO): 130 µM
- aggregation threshold ([2]; PBS, 5% DMSO): 350 µM
- aggregation threshold ([2]; with 0.05% Tween-20, DMSO content not specified): at least 500 µM
- cell death [3]: 15.17 ± 3.67%
- percentage of cells with elongated mitochondria ([4]; basal condition, compared to DMSO control): significant increase
- cellular networks of mitochondria ([4]; human fibroblasts, 5, 10 or 50 µM, 24 h): increase cellular networks of mitochondria
- cellular networks of mitochondria [5]: no significant effect

Reference: article PMC9747717, “A novel small molecule inhibitor of human Drp1” (Scientific Reports, 2022)
